Read-outs that look alike come from different tables or passages of the source.
Tested on: Myc-Max transcriptional activity
Experiment: Cignal c-Myc luciferase reporter assay in LNCaP cells
Assay type: cell-based
Conditions: Homo sapiens, LNCaP; for IC50: TABLE 2, assay not named, values match Myc-Max transcriptional activity, read-out: IC50
Protocol: Cell transfection was performed using TransIT-2020™ transfection reagents according to the manufacturer's instructions (Mirus™). LNCaP cells were plated at 10000 cells per well and treated for 1 day with the indicated concentration of compound. Myc reporter activity was measured using the Cignal Myc Reporter Assay Kit™ from Qiagen™ (#336841) according to the manufacturer's instructions. For the UBE2C reporter assay, 22rv1 cells were plated at 10000 cells per well in 96-well plates in RPMI media supplemented with 5% charcoal-stripped serum (CSS) and treated for 1 day with 1 μM, 10 μM and 25 μM of compound.
Compounds were subjected to experimental evaluation using the commercially available transcriptional assay Cignal c-Myc luciferase reporter assay in LNCaP cells. […] A transiently transfected Myc-driven luciferase reporter allowed the monitoring of Myc-regulated signal in LNCaP upon treatment with the in silico identified compounds.

[1] = TABLE 3, read-out: % Inhibition 25 μM
[2] = TABLE 5, read-out: % Inhibition 25 μM

Cc1c(CC(=O)NCC[C@@H](c2ccc(Cl)cc2)C(C)C)c(=O)oc2c(O)c(O)ccc12 [VPC-70393]
inhibition at 25 µM [1]: 96%

S=C(NCc1ccccc1)Nc1cccc(COc2ccccc2)c1 [VPC-70526]
inhibition at 5 µM (TABLE 3): 41% | inhibition at 10 µM (TABLE 3): 62% | inhibition at 25 µM [1]: 94%

O=C(O)CCC1CCN(C(=O)c2ccc(S(=O)(=O)NCc3cccs3)cc2)CC1 [VPC-70344]
inhibition at 25 µM [2]: 49%

O=C1/C(=C/c2cccs2)SC(=S)N1c1cccc(O)c1 [VPC-70005]
inhibition at 25 µM (TABLE 4, read-out: % Inhibition (25 μM)): 65% | inhibition at 25 µM (24 h, LNCaP cells, TABLE 1, read-out: Myc-Max transcriptional activity % inhibition (25 μM)): 65% | IC50: > 25 µM

O=C(NCCc1c[nH]c2ccccc12)c1coc2ccccc2c1=O [VPC-70219]
inhibition at 25 µM [2]: 67% | IC50: > 25 µM

Cc1cccc(-c2cc(C(=O)Nc3ccc(S(=O)(=O)N4CCCCC4)cc3)n[nH]2)c1O [VPC-70390]
inhibition at 25 µM [1]: 97% | IC50: 9 µM

NC(=O)NCc1ccc(NC(=S)NCc2ccccc2)cc1 [VPC-70531]
inhibition at 5 µM (TABLE 3): 0% | inhibition at 10 µM (TABLE 3): 27% | inhibition at 12.5 µM (TABLE 3): 47% | inhibition at 25 µM [1]: 81%

S=C(NCc1ccccc1)Nc1cccc(Cl)c1 [VPC-70477]
inhibition at 5 µM (TABLE 3): 3% | inhibition at 10 µM (TABLE 3): 30% | inhibition at 25 µM [1]: 99%

Cc1cc2c(cc1S(=O)(=O)N1CCN(C(=O)CCC3CCCC3)CC1)OCC(=O)N2 [VPC-70380]
inhibition at 25 µM [2]: 68%

Cc1cc(NC(=S)NCc2ccon2)cc(C(F)(F)F)c1 [VPC-70564]
inhibition at 12.5 µM (TABLE 3): 73%

O=C(NCCc1ccccc1)C(=O)Nc1cc(C(F)(F)F)cc(C(F)(F)F)c1 [VPC-70527]
inhibition at 5 µM (TABLE 3): 38% | inhibition at 10 µM (TABLE 3): 43% | inhibition at 25 µM [1]: 92%

NS(=O)(=O)c1ccc(NC(=O)[C@H]2CC=CC[C@H]2C(=O)O)cc1 [VPC-70394]
inhibition at 25 µM [2]: 54%

Cc1ccc(C(=O)N(C)c2ccc(OCC(=O)NCc3ccc(C(=O)O)cc3)cc2)cc1 [VPC-70358]
inhibition at 25 µM [2]: 48%

O=C(NCCc1c[nH]c2ccccc12)C(=O)Nc1ccc(F)cc1 [VPC-70209]
inhibition at 25 µM [2]: 52%

NS(=O)(=O)c1cc(F)cc(NC(=S)NCc2ccccc2)c1 [VPC-70525]
inhibition at 5 µM (TABLE 3): 40% | inhibition at 10 µM (TABLE 3): 35% | inhibition at 25 µM [1]: 102%

COCCn1c(Cc2ccccc2)nnc1SCC(=O)c1ccc2c(c1)CCC(=O)N2 [VPC-70359]
inhibition at 25 µM [2]: 41%

O=C(N[C@H](CO)Cc1ccccc1)c1cc(-n2cnnc2)ccc1Cl [VPC-70395]
inhibition at 25 µM [2]: 56% | IC50: > 25 µM

COc1ccc2[nH]cc(CCNC(=O)CCc3nc(-c4ccccc4)no3)c2c1 [VPC-70277]
inhibition at 25 µM [1]: 95% | IC50: > 25 µM

O=C(CCc1csc(NC(=O)c2ccc(F)cc2)n1)NCCc1ccccc1 [VPC-70131]
inhibition at 25 µM [2]: 50%

O=C(NCCNS(=O)(=O)c1ccccc1)NNC(=O)c1cccc(C(F)(F)F)c1 [VPC-70549]
inhibition at 12.5 µM (TABLE 3): 75%

Cc1c(Cl)cccc1NC(=S)NCc1ccc(F)cc1 [VPC-70468]
inhibition at 5 µM (TABLE 3): 9% | inhibition at 10 µM (TABLE 3): 30% | inhibition at 25 µM [1]: 74%

Cc1ccccc1OC[C@@H](O)C(=O)NCC1(O)C2CC3CC(C2)CC1C3 (stereo partly drawn) [VPC-70283]
inhibition at 25 µM [2]: 45%

C[C@@H]1CN(Cc2ccc(CNC(=S)Nc3cccc(C(F)(F)F)c3)cc2)C[C@@H](C)O1 [VPC-70506]
inhibition at 5 µM (TABLE 3): 73% | inhibition at 10 µM (TABLE 3): 66% | inhibition at 25 µM [1]: 89%

Cc1ccc(C(=O)NCC(=O)NCC(=O)Nc2ccc(F)c(F)c2F)cc1C [VPC-70236]
inhibition at 25 µM [2]: 32%

Cc1nc(C(=O)NC[C@@H](O)COCc2ccccc2)c2ccccn12 [VPC-70267]
inhibition at 25 µM [2]: 47%

COC(=O)c1cc(NC(=S)NCc2ccccc2)cc(Cl)c1F [VPC-70501]
inhibition at 5 µM (TABLE 3): 34% | inhibition at 10 µM (TABLE 3): 37% | inhibition at 25 µM [1]: 90%

O=C(CCc1c[nH]c2ccccc12)NCc1noc(-c2ccccc2)n1 [VPC-70240]
inhibition at 25 µM [2]: 48%

CC(=O)N1c2ccc(S(=O)(O)=Nc3ccc(C(=O)NCC(=O)O)cc3)cc2C[C@@H]1C [VPC-70343]
inhibition at 25 µM [2]: 54%

From patent US12017975B2, “Myc-Max inhibitor compound therapeutics for cancer treatment, methods and uses associated therewith” (THE UNIVERSITY OF BRITISH COLUMBIA, priority 2018, dated 2024)
